Experimental data: patent publication US10202365B2, “2-(pyridin-3-yl)-pyrimidine derivatives as RET inhibitors” (BLUEPRINT MEDICINES CORPORATION, priority 2015, dated 2019)
pIC50: −log10 of the molar value.

Target: wild type RET (Homo sapiens (Human), UniProt P07949)
Test: RET Wild Type Assay at KM (Caliper electrophoretic mobility shift)
Type: biochemical
Details: 25 μM ATP, 25° C., 120 minutes

Chain of wild type RET (P07949 29-1114): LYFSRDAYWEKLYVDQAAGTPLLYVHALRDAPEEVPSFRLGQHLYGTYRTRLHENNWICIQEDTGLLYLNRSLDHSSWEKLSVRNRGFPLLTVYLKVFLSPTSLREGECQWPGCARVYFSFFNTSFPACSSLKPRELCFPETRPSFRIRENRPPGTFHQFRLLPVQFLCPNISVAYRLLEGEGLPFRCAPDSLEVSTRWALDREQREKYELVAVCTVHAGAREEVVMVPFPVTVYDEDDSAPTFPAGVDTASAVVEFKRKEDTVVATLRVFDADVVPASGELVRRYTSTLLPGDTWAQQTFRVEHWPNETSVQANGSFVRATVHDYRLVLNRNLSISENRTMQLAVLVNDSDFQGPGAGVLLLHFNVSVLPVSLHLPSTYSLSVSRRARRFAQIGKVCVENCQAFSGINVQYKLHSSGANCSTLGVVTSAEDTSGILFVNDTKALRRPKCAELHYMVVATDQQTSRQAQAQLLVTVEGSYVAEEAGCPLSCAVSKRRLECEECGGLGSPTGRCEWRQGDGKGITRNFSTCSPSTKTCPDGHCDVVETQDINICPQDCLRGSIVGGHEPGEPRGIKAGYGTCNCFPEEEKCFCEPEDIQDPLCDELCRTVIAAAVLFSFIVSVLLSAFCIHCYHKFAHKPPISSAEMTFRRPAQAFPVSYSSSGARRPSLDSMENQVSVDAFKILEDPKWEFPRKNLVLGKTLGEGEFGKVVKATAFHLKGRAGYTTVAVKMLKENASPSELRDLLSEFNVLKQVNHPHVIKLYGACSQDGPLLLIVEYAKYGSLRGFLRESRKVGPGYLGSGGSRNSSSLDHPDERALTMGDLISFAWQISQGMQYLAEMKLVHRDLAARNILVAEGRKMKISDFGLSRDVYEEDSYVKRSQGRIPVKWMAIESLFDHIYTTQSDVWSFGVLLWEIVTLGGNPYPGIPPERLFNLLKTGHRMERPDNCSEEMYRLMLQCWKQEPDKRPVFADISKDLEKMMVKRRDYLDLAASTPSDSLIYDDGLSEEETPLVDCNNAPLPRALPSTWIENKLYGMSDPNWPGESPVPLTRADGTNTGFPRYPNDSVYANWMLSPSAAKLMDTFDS

Row | SMILES | pIC50
1 | Cc1cc(Nc2cc(C)[nH]n2)nc(-c2ccc(C(=O)NCc3cnc(-n4cc(F)cn4)cn3)nc2)n1 [Compound 21] | > 8.00
2 | Cc1cc(Nc2cc(C)[nH]n2)nc(-c2ccc(C(=O)NCc3ccoc3)nc2)n1 [Compound 1] | 7.00 to 8.00
3 | Cc1cc(Nc2cc(C)[nH]n2)nc(-c2ccc(C(=O)NCc3cncs3)nc2)n1 [Compound 3] | < 7.00
4 | Cc1cc(Nc2cc(C)[nH]n2)nc(-c2ccc(C(=O)NCc3ccc(-n4ccc(C5CC5)n4)nc3)nc2)n1 [Compound 26] | > 8.00
5 | Cc1cc(Nc2cc(C)[nH]n2)nc(-c2ccc(C(=O)NCc3ccc(-n4cc(CCO)cn4)nc3)nc2)n1 [Compound 28] | 7.00 to 8.00
6 | Cc1ccc(CNC(=O)c2ccc(-c3nc(C)cc(Nc4cc(C)[nH]n4)n3)cn2)cc1 [Compound 5] | 7.00 to 8.00
7 | Cc1cc(Nc2cc(C)[nH]n2)nc(-c2cnc(C(=O)NCc3ccc(-n4cccn4)nc3)c(C)c2)n1 [Compound 19] | > 8.00
8 | Cc1cc(Nc2cc(C)[nH]n2)nc(-c2cnc(C(=O)N[C@@H](C)c3ccc(-n4cc(F)cn4)nc3)c(C)c2)n1 [Compound 29, (S)—N-(1-(6-(4-fluoro-1H-pyrazol-1-yl)pyridin-3-yl)ethyl)-3-methyl-5-(4-methyl-6-((5-methyl-1H-pyrazol-3-yl)amino)pyrimidin-2-yl)picolinamide] | > 8.00
9 | Cc1cc(Nc2cc(C)[nH]n2)nc(-c2ccc(C(=O)NCc3ccc(-n4cc(C#N)cn4)nc3)nc2)n1 [Compound 22] | 7.00 to 8.00
10 | Cc1cc(Nc2cc(C)[nH]n2)nc(-c2ccc(C(=O)NCc3ccc(F)cc3)nc2)n1 [Compound 9] | 7.00 to 8.00
11 | Cc1cc(Nc2cc(C)[nH]n2)nc(-c2ccc(C(=O)NCc3ccc(-n4cc(C5CC5)cn4)nc3)nc2)n1 [Compound 27] | 7.00 to 8.00
12 | Cc1cc(Nc2cc(C)[nH]n2)nc(-c2ccc(C(=O)NCc3ccc(-n4cc(C(F)F)c(C)n4)nc3)nc2)n1 [Compound 32] | 7.00 to 8.00
13 | Cc1cc(Nc2cc(C)[nH]n2)nc(-c2ccc(C(=O)N3Cc4ccccc4C3)nc2)n1 [Compound 4] | 7.00 to 8.00
14 | Cc1cc(Nc2cc(C)[nH]n2)nc(-c2ccc(C(=O)NCc3ccc(Cl)cc3)nc2)n1 [Compound 11] | 7.00 to 8.00

Further lines, results first:

Row | pIC50 | SMILES
15 | 7.00 to 8.00 | Cc1ccc(CNC(=O)c2ccc(-c3nc(C)cc(Nc4cc(C)[nH]n4)n3)cn2)nc1 [Compound 7]
16 | > 8.00 | Cc1cc(Nc2cc(C)[nH]n2)nc(-c2cnc(C(=O)N[C@@H](C)c3ccc(-n4cc(F)cn4)nc3)c(F)c2)n1 [Compound 30, (S)-3-fluoro-N-(1-(6-(4-fluoro-1H-pyrazol-1-yl)pyridin-3-yl)ethyl)-5-(4-methyl-6-((5-methyl-1H-pyrazol-3-yl)amino)pyrimidin-2-yl)picolinamide]
17 | < 7.00 | CCOc1ccc([C@@H](C)NC(=O)c2ncc(-c3nc(C)cc(Nc4cc(C)[nH]n4)n3)cc2C)cc1 [Compound 16]
18 | > 8.00 | CC[C@@H](NC(=O)c1ccc(-c2nc(C)cc(Nc3cc(C)[nH]n3)n2)cn1)c1ccc(-n2cc(F)cn2)nc1 [Compound 34]
19 | > 8.00 | Cc1cc(Nc2cc(C)[nH]n2)nc(-c2ccc(C(=O)NCc3ccc(-n4nc(C)cc4C)nc3)nc2)n1 [Compound 24]
20 | < 7.00 | CCOc1ccc([C@H](C)NC(=O)c2ncc(-c3nc(C)cc(Nc4cc(C)[nH]n4)n3)cc2C)cc1 [Compound 17]
21 | > 8.00 | Cc1cc(Nc2cc(C)[nH]n2)nc(-c2ccc(C(=O)N[C@@H](C)c3ccc(-n4cc(F)cn4)nc3)nc2)n1 [Compound 25, (S)—N-(1-(6-(4-fluoro-1H-pyrazol-1-yl)pyridin-3-yl)ethyl)-5-(4-methyl-6-((5-methyl-1H-pyrazol-3-yl)amino)pyrimidin-2-yl)picolinamide]
22 | > 8.00 | Cc1cnn(-c2ccc(CNC(=O)c3ccc(-c4nc(C)cc(Nc5cc(C)[nH]n5)n4)cn3)cn2)c1 [Compound 18]
23 | < 7.00 | Cc1cc(Nc2cc(C)[nH]n2)nc(-c2ccc(C(=O)N[C@H](C)c3ccccc3)nc2)n1 [Compound 6]
24 | 7.00 to 8.00 | CCOc1ccc(CNC(=O)c2ncc(-c3nc(C)cc(Nc4cc(C)[nH]n4)n3)cc2C)cc1 [Compound 13]
25 | > 8.00 | Cc1cc(Nc2cc(C)[nH]n2)nc(-c2cnc(C(=O)N[C@@H](C)c3ccc(-n4cccn4)nc3)c(C)c2)n1 [Compound 23]
26 | < 7.00 | Cc1cc(Nc2cc(C)[nH]n2)nc(-c2ccc(C(=O)NCc3cccc(F)c3)nc2)n1 [Compound 8]
27 | 7.00 to 8.00 | Cc1cc(Nc2cc(C)[nH]n2)nc(-c2ccc(C(=O)NCc3ccc(-n4cc(C(F)F)cn4)nc3)nc2)n1 [Compound 31]
